# Source: ChEMBL document CHEMBL5614456, “Emerging Techniques in Cancer Therapy: Precision Targeting for Improved Outcomes” (ACS Med Chem Lett, 2024)
# Experiment: Inhibition of ERK phosphorylation at Thr202/Tyr204 residues in human ASPC1 cells harboring KRAS G12D mutant […] incubated for 24 hrs by ELISA
# Assay type: cell-based
# Conditions: ASPC1, 24 h
row,SMILES,IC50
1,Cc1c(F)cc2c(cnn2C2CCCCO2)c1-c1c(C2CC2)cc2c(N3C[C@@H]4C[C@H]3CN4C(=O)OC(C)(C)C)nc(OC3COC3)nc2c1OCc1ccccc1 (stereo partly drawn),6 nM
2,Cc1c(F)cc2c(cnn2C2CCCCO2)c1-c1c(C2CC2)cc2c(N3C[C@@H]4C[C@H]3CN4C(=O)OC(C)(C)C)nc(OC3CCOCC3)nc2c1OCc1ccc(-c2cn([C@H](C(=O)N3C[C@H](O)C[C@H]3C(=O)N[C@H](CO)c3ccc(-c4ccnn4C)cc3)C(C)C)nn2)cc1 (stereo partly drawn),11 nM
3,Cc1ncsc1-c1ccc([C@@H](CO)NC(=O)[C@@H]2C[C@@H](O)CN2C(=O)[C@H](C(C)C)n2cc(-c3ccc(COc4c(-c5c(C)c(F)cc6c5cnn6C5CCCCO5)c(C5CC5)cc5c(N6C[C@@H]7C[C@H]6CN7C(=O)OC(C)(C)C)nc(OC6CCOCC6)nc45)cc3)nn2)cc1 (stereo partly drawn),8 nM
4,CC(C)(C)OC(=O)N1C[C@@H]2C[C@H]1CN2c1nc(OC2CCOCC2)nc2c(OCc3ccccc3)c(Br)c(C3CC3)cc12,15 nM
5,Cc1ncsc1-c1ccc(C2(NC(=O)[C@@H]3C[C@@H](O)CN3C(=O)[C@H](C(C)C)n3cc(-c4ccc(COc5c(-c6c(C)c(F)cc7c6cnn7C6CCCCO6)c(C6CC6)cc6c(N7C[C@@H]8C[C@H]7CN8C(=O)OC(C)(C)C)nc(OC7CCOCC7)nc56)cc4)nn3)CC2)cc1 (stereo partly drawn),7 nM
6,CCSc1nc(N2C[C@@H]3C[C@H]2CN3C(=O)OC(C)(C)C)c2cc(C3CC3)c(Br)c(OCc3ccccc3)c2n1,26 nM
7,CCCCCCCCCCCCSc1nc(N2C[C@@H]3C[C@H]2CN3C(=O)OC(C)(C)C)c2cc(C3CC3)c(Br)c(OCc3ccccc3)c2n1,18 nM
8,CCSc1nc(N2C[C@@H]3C[C@H]2CN3C(=O)OC(C)(C)C)c2cc(I)c(Br)c(OCc3ccccc3)c2n1,17 nM
